In patent publication US20130217664A1, “NOVEL COMPOUNDS USEFUL FOR THE TREATMENT OF DEGENERATIVE AND INFLAMMATORY DISEASES” (priority 2012, published 2013):
Read-outs that look alike come from different tables or passages of the source.

Columns and labels:
human JAK3 = target: T1, human JAK3 (Homo sapiens, UniProt P52333); assay: JAK3 inhibition assay; assay type: biochemical; conditions: recombinant human JAK3 catalytic domain; polyGT substrate
T1 construct: catalytic domain (amino acids 781-1124; catalog number PV3855); purchased Invitrogen PV3855
T1 sequence (P52333 781-1124): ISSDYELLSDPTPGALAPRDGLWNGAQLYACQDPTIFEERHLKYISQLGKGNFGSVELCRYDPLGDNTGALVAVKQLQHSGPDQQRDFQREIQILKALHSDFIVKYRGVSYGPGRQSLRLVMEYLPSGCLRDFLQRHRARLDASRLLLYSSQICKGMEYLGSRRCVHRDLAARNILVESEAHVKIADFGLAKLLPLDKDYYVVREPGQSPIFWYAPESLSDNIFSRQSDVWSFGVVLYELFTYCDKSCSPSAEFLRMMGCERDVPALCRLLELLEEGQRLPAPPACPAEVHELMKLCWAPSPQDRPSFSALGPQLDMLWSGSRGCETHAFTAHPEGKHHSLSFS
Summary of the method: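 Radiometric kinase assay: 0.5 ng JAK3 with 2.5 μg polyGT in Tris pH 7.5/MgCl2 buffer, 1 μM ATP plus 0.25 μCi 33P-γ-ATP, 1% DMSO, 45 min at 30 °C, stopped with phosphoric acid.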

human TYK2 = target: T2, human TYK2 (Homo sapiens, UniProt P29597); assay: TYK2 inhibition assay; assay type: biochemical; conditions: recombinant human TYK2 catalytic domain, polyGT substrate
T2 construct: catalytic domain (amino acids 871-1187; catalog number 08-147); purchased Carna Biosciences 08-147
T2 sequence (P29597 871-1187): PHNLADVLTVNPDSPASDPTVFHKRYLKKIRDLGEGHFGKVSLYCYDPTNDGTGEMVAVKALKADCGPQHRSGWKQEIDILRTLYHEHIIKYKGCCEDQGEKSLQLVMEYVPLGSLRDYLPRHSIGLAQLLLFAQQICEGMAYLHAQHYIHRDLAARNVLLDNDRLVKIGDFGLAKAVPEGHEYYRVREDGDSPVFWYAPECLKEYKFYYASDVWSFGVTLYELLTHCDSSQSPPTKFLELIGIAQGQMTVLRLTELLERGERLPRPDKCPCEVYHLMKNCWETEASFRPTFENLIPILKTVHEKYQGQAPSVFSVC
Summary of the method: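 Radiometric kinase reaction run 90 min at 30 °C, stopped with phosphoric acid, washed and scintillation-counted.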

[1] = test system: pSTAT1(2)-luciferase reporter in HeLa cells triggered with human OSM; assay: JAK-STAT signalling assay; assay type: cell-based; conditions: read-out: JAK-STAT IC50
Summary of the method: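 Compound added 60 min before 33 ng/mL (final) human OSM; after overnight stimulation at 37 °C, luciferase signal from a transiently transfected pSTAT1(2) reporter in HeLa cells was read, with LacZ as internal control. EC50 derived from percent-inhibition dose-response curves.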

[2] = HeLa cells, pSTAT1(2)-luciferase reporter, human OSM 33 ng/mL
[3] = Homo sapiens, HeLa, HeLa cells, pSTAT1(2)-luciferase reporter, human OSM 33 ng/mL

| SMILES | IC50 (human JAK3) [nM] | IC50 (human TYK2) [nM] | IC50 [1, 2] [nM] | IC50 [1, 3] [nM] | IC50 ([1]; Homo sapiens, HeLa) [nM] |
| --- | --- | --- | --- | --- | --- |
| CCc1cc(-c2ccc(CN)s2)ncc1N(C)c1cc2c(cn1)ncn2C [Compound 303, [6-(5-Aminomethyl-thiophen-2-yl)-4-ethyl-pyridin-3-yl]-methyl-(1-methyl-1H-imidazo[4,5-c]pyridin-6-yl)-amine] | > 1000 | > 1000 | > 1000 | – | – |
| CCNC(=O)c1ccc(N(C)c2cc3c(cn2)ncn3C)c(CC)c1 [Compound 102, N,3-diethyl-4-(methyl(1-methyl-1H-imidazo[4,5-c]pyridin-6-yl)amino)benzamide] | > 1000 | 101 to 500 | – | > 1000 | – |
| CCc1cc(C2CN(S(=O)(=O)C(F)F)C2)ncc1N(C)c1cc2c(cn1)ncn2C [Compound 329, {6-[1-(Difluoro-methanesulfonyl)-azetidin-3-yl]-4-ethyl-pyridin-3-yl}-methyl-(1-methyl-1H-imidazo[4,5-c]pyridin-6-yl)-amine] | > 1000 | > 1000 | 1 to 500 | – | – |
| Cc1ccc(OCCCC#N)cc1N(C)c1cc2c(cn1)ncn2C [Compound 60, 4-(4-methyl-3-(methyl(1-methyl-1H-imidazo[4,5-c]pyridin-6-yl)amino)phenoxy)butane nitrile] | 101 to 500 | 501 to 1000 | – | > 1000 | – |
| CN(c1cc2c(cn1)ncn2C)c1ccc(CNC(=O)C(F)F)cc1F [Compound 320] | 501 to 1000 | 101 to 500 | – | > 1000 | – |
| CCc1cc(OC2CCN(S(C)(=O)=O)C2)ccc1N(C)c1cc2c(cn1)ncn2C (stereo not drawn) [Compound 110, N-(2-Ethyl-4-((1-(methylsulfonyl)pyrrolidin-3-yl)oxy)phenyl)-N,1-dimethyl-1H-imidazo[4,5-c]pyridin-6-amine] | 101 to 500 | 0.01 to 100 | – | > 1000 | – |
| CCc1cc(CNS(C)(=O)=O)c(F)cc1N(C)c1cc2c(cn1)ncn2C [Compound 325, N-{5-Ethyl-2-fluoro-4-[methyl-(1-methyl-1H-imidazo[4,5-c]pyridin-6-yl)-amino]-benzyl}-methanesulfonamide] | 101 to 500 | 101 to 500 | – | 1 to 500 | – |
| CCc1cn(CCC#N)nc1N(C)c1cc2c(cn1)ncn2C [Compound 316, 3-{4-Ethyl-3-[methyl-(1-methyl-1H-imidazo[4,5-c]pyridin-6-yl)-amino]-pyrazol-1-yl}-propionitrile] | > 1000 | > 1000 | – | – | > 1000 |
| CCc1cc(-c2ccc(Cl)s2)ncc1N(C)c1cc2c(cn1)ncn2C [Compound 304, [6-(5-Chloro-thiophen-2-yl)-4-ethyl-pyridin-3-yl]-methyl-(1-methyl-1H-imidazo[4,5-c]pyridin-6-yl)-amine] | 0.01 to 100 | 0.01 to 100 | 1 to 500 | – | – |
| Cc1ccc(OCC#N)cc1N(C)c1cc2c(cn1)ncn2C [Compound 57, 2-(4-methyl-3-(methyl(1-methyl-1H-imidazo[4,5-c]pyridin-6-yl)amino)phenoxy)acetoni-trile] | 101 to 500 | 501 to 1000 | – | > 1000 | – |
| COc1cc(N2CCOCC2)ncc1N(C)c1cc2c(cn1)ncn2C [Compound 313, (4-Methoxy-6-morpholin-4-yl-pyridin-3-yl)-methyl-(1-methyl-1H-imidazo[4,5-c]pyridine-6-yl)-amine] | 501 to 1000 | 101 to 500 | > 1000 | – | – |
| CCc1cc(C(=O)NCc2ccccc2)ccc1N(C)c1cc2c(cn1)ncn2C [Compound 98, N-benzyl-3-ethyl-4-(methyl(1-methyl-1H-imidazo[4,5-c]pyridin-6-yl)amino)benzamide] | 501 to 1000 | 501 to 1000 | – | > 1000 | – |
| CCc1cc(-c2ccc(C#N)nc2)ccc1N(C)c1cc2c(cn1)ncn2C [Compound 114, 5-(3-ethyl-4-(methyl(1-methyl-1H-imidazo[4,5-c]pyridin-6-yl)amino)phenyl)picolino-nitrile] | 101 to 500 | 0.01 to 100 | – | 1 to 500 | – |
| COC(=O)c1ccc(N(C)c2cc3c(cn2)ncn3C)c(C)c1 [Compound 27, Methyl 3-methyl-4-(methyl(1-methyl-1H-imidazo[4,5-c]pyridin-6-yl)amino)benzoate] | > 1000 | > 1000 | – | > 1000 | – |
| CCc1cc(-c2cccnc2)ccc1N(C)c1cc2c(cn1)ncn2C [Compound 94, N-(2-ethyl-4-(pyridin-3-yl)phenyl)-N,1-dimethyl-1H-imidazo[4,5-c]pyridin-6-amine] | 501 to 1000 | 0.01 to 100 | – | 1 to 500 | – |
| CCc1cc(COC)ccc1N(C)c1cc2c(cn1)ncn2C [Compound 105, N-(2-Ethyl-4-(methoxymethyl)phenyl)-N,1-dimethyl-1H-imidazo[4,5-c]pyridin-6-amine] | 101 to 500 | 0.01 to 100 | – | > 1000 | – |
